Laboratory results reported in patent publication EP4813381A1, “PHARMACEUTICAL USE OF GUAIANE SESQUITERPENE DERIVATIVE” (Nanjing University Of Chinese Medicine, priority 2023, dated 2025).

Key:
[1] = test system: MDSCs and T cells; assay: T cell proliferation in a co-culture model of MDSCs and T cells (flow cytometry); format: cell-based, mice; details: MDSCs treated with 1 µM compound for 12 h, 48 h co-culture with T cells (1:1), compared to the control group
Procedure: Under sterile conditions, the tibia was removed, both ends of the bone were cut, and bone marrow was repeatedly flushed into a 15 mL centrifuge tube using a 1 mL syringe filled with culture medium. Centrifuge at 1600 rpm for 5 min to collect bone marrow cells. […] The spleen cell suspension was then transferred into a 15 mL centrifuge tube. Centrifuge at 1600 rpm for 5 min to collect T cells. Wash twice with 1×PBS. Resuspend the centrifuged T cells in 1 mL PBS and add 1 mL of 10 µM CFDA-SE solution. Incubate at room temperature for 8 min. […] After drug administration, collect MDSC cells into centrifuge tubes. Centrifuge at 1600 rpm for 5 min, remove supernatant, resuspend in 1 mL fresh medium, and plate. Add 1 mL stimulated activated T cells (1:1 ratio) for 48 h co-culture. After incubation, collect cells into centrifuge tubes, wash twice with PBS, and incubate with Fc antibody at room temperature in the dark for 10 min. Add CD3-labeled flow cytometry antibody and incubate at 4 °C in the dark for 30 min. After incubation, wash cells with PBS, resuspend in 300 µL PBS, and analyze by flow cytometry.

[2] = Conversion rate of salt-form prodrugs to parent compound in HEPES buffer solution; format: physicochemical; details: conversion to Compound 1, HEPES buffer pH 7.4, 37 °C
Procedure: Adjust the pH to 7.4 using 0.5 M NaOH, then dilute to a final volume 100 mL with distilled water.
(§1) Sample Analysis: Dissolve 0.6 mg of the compound in 250 µl of deionized water separately. Add 250 µl of mouse serum or HEPES 7.4 solution to the sample, incubate at a constant temperature of 37 °C, and collect samples at different time points. Pipette 20 µl of the sample to an EP tube, add 60 µl of methanol, vortex to mix thoroughly, and centrifuge at 12,000 rpm at 4 °C for 10 min. At 1 h, 2 h, 4 h, 8 h, and 12 h respectively, collect the supernatant for HPLC analysis. Inject 10 µL of sample and record the corresponding peak areas.

[3] = Conversion rate of salt-form prodrugs to parent compound in mouse plasma; format: in vitro ADME; details: conversion to Compound 1, mouse plasma, 37 °C
Procedure: Pharmaceutically acceptable salts of guaiane-type sesquiterpene lactone derivatives were selected and evaluated for their conversion rates to Compound 1 and Compound 83 in plasma and HEPES buffer, with results shown in Tables 2-1, 2-2, 3-1, and 3-2.
Plasma Preparation: Collect mouse plasma into an EP tube pre-loaded with sodium heparin, centrifuge at 8000 rpm for 10 minutes at 4°C, and then collect the supernatant.
as §1, with “areas. Chromatographic conditions: Hanbang C18 column (4.6 × 250 mm, 5 µm); mobile phase: acetonitrile: […] ammonium formate solution = 60:40; flow rate 1.0 mL/min; detection wavelength 210 nm; column temperature 30 °C. [drawing 171] Table 2-1. Conversion Rate of Compounds 20-42 to Compound 1 at Different Time Points in HEPES Buffer Solution” for “areas.”

Structure (SMILES): C=C1C(=O)O[C@H]2[C@H]1CCC(C)=C1CC[C@@](C)(OC(=O)NCC(F)F)[C@@H]12 [compound 89]
- T-cell proliferation rate (%) [1]: ++ (T-cell proliferation rate within the 20-40% range compared to the control group)

Structure (SMILES): C=C1C(=O)O[C@H]2[C@H]1CCC(C)=C1CC[C@@](C)(OC(=O)N3CCC(C)CC3)[C@@H]12 [compound 84]
- T-cell proliferation rate (%) [1]: ++ (T-cell proliferation rate within the 20-40% range compared to the control group)

Structure (SMILES): C=C1C(=O)O[C@H]2[C@H]1CCC(C)=C1CC[C@@](C)(OC(=O)NCCCOC)[C@@H]12 [compound 75]
- T-cell proliferation rate (%) [1]: ++ (T-cell proliferation rate within the 20-40% range compared to the control group)

Structure (SMILES): C=C1C(=O)O[C@H]2[C@H]1CCC(C)=C1CC[C@@](C)(OC(=O)NCCO)[C@@H]12 [compound 71]
- T-cell proliferation rate (%) [1]: +++ (T-cell proliferation rate >40% compared to the control group)

Structure (SMILES): C=C1C(=O)O[C@H]2[C@H]1CCC(C)=C1CC[C@@](C)(OC(=O)N3CCN(CC)CC3)[C@@H]12 [compound 86]
- T-cell proliferation rate (%) [1]: ++ (T-cell proliferation rate within the 20-40% range compared to the control group)

Structure (SMILES): C=C1C(=O)O[C@H]2[C@H]1CCC(C)=C1CC[C@@](C)(OC(=O)NCCCN3CCOCC3)[C@@H]12 [compound 92]
- T-cell proliferation rate (%) [1]: ++ (T-cell proliferation rate within the 20-40% range compared to the control group)

Structure (SMILES): C=C1C(=O)O[C@H]2[C@H]1CCC(C)=C1CC[C@@](C)(OC(=O)NCc3ccccc3)[C@@H]12 [compound 79]
- T-cell proliferation rate (%) [1]: ++ (T-cell proliferation rate within the 20-40% range compared to the control group)

Structure (SMILES): C=C1C(=O)O[C@H]2[C@H]1CCC(C)=C1CC[C@@](C)(OC(=O)NC(C)C)[C@@H]12 [compound 68]
- T-cell proliferation rate (%) [1]: + (T-cell proliferation rate within the 0-20% range compared to the control group)

Structure (SMILES): CC1CCN(C[C@@H]2C(=O)O[C@H]3[C@H]2CC[C@@]2(C)C[C@]24CC[C@@](C)(O)[C@H]34)CC1 [compound 43]
- T-cell proliferation rate (%) [1]: + (T-cell proliferation rate within the 0-20% range compared to the control group)

Structure (SMILES): C=C1C(=O)O[C@H]2[C@H]1CCC(C)=C1CC[C@@](C)(OC(=O)NCCOC)[C@@H]12 [compound 74]
- T-cell proliferation rate (%) [1]: +++ (T-cell proliferation rate >40% compared to the control group)

Structure (SMILES): C=C1C(=O)O[C@H]2[C@H]1CCC(C)=C1CC[C@@](C)(OC(=O)N3CCOCC3)[C@@H]12 [compound 87]
- T-cell proliferation rate (%) [1]: +++ (T-cell proliferation rate >40% compared to the control group)

Structure (SMILES): C=C1C(=O)O[C@H]2[C@H]1CCC(C)=C1CC[C@@](C)(OC(=O)NC(CC)CC)[C@@H]12 [compound 69]
- T-cell proliferation rate (%) [1]: ++ (T-cell proliferation rate within the 20-40% range compared to the control group)

Structure (SMILES): CC1=C2CC[C@@](C)(OC(=O)N3CCCCC3)[C@@H]2[C@H]2OC(=O)[C@@H](CN(C)C)[C@@H]2CC1 [compound 97]
- T-cell proliferation rate (%) [1]: + (T-cell proliferation rate within the 0-20% range compared to the control group)

Structure (SMILES): C=C1C(=O)O[C@H]2[C@H]1CCC(C)=C1CC[C@@](C)(OC(=O)N3CCCC3)[C@@H]12 [compound 82]
- T-cell proliferation rate (%) [1]: + (T-cell proliferation rate within the 0-20% range compared to the control group)

Structure (SMILES): C=C1C(=O)O[C@H]2[C@H]1CCC(C)=C1CC[C@@](C)(OC(=O)NCCN3CCN(C)CC3)[C@@H]12 [compound 95]
- T-cell proliferation rate (%) [1]: ++ (T-cell proliferation rate within the 20-40% range compared to the control group)

Structure (SMILES): CC1=C2CC[C@@](C)(OC(=O)N3CCCCC3)[C@@H]2[C@H]2OC(=O)[C@@H](CN3CCCC3)[C@@H]2CC1 [compound 96]
- T-cell proliferation rate (%) [1]: + (T-cell proliferation rate within the 0-20% range compared to the control group)

Structure (SMILES): C=C1C(=O)O[C@H]2[C@H]1CCC(C)=C1CC[C@@](C)(OC(=O)NCCCO)[C@@H]12 [compound 72]
- T-cell proliferation rate (%) [1]: ++ (T-cell proliferation rate within the 20-40% range compared to the control group)

Structure (SMILES): C=C1C(=O)O[C@H]2[C@H]1CCC(C)=C1CC[C@@](C)(OC(=O)NCCN(C)C)[C@@H]12 [compound 77]
- T-cell proliferation rate (%) [1]: + (T-cell proliferation rate within the 0-20% range compared to the control group)

Structure (SMILES): C=C1C(=O)O[C@H]2[C@H]1CCC(C)=C1CC[C@@](C)(OC(=O)NC3CC3)[C@@H]12 [compound 70]
- T-cell proliferation rate (%) [1]: + (T-cell proliferation rate within the 0-20% range compared to the control group)

Structure (SMILES): C=C1C(=O)O[C@H]2[C@H]1CCC(C)=C1CC[C@@](C)(OC(=O)NCCCN3CCN(C)CC3)[C@@H]12 [compound 93]
- T-cell proliferation rate (%) [1]: ++ (T-cell proliferation rate within the 20-40% range compared to the control group)

Structure (SMILES): C=C1C(=O)O[C@H]2[C@H]1CCC(C)=C1CC[C@@](C)(OC(=O)N(CC)CC)[C@@H]12 [compound 81]
- T-cell proliferation rate (%) [1]: ++ (T-cell proliferation rate within the 20-40% range compared to the control group)

Structure (SMILES): CN(C)C[C@@H]1C(=O)O[C@H]2[C@H]1CC[C@@]1(C)C[C@]13C[C@@H](O)[C@@](C)(O)[C@H]23 [compound 60]
- T-cell proliferation rate (%) [1]: + (T-cell proliferation rate within the 0-20% range compared to the control group)

Structure (SMILES): C=C1C(=O)O[C@H]2[C@H]1CCC(C)=C1CC[C@@](C)(OC(=O)N(C)C)[C@@H]12 [compound 80]
- T-cell proliferation rate (%) [1]: ++ (T-cell proliferation rate within the 20-40% range compared to the control group)

Structure (SMILES): C=C1C(=O)O[C@H]2[C@H]1CCC(C)=C1CC[C@@](C)(OC(=O)NCC(C)C)[C@@H]12 [compound 88]
- T-cell proliferation rate (%) [1]: ++ (T-cell proliferation rate within the 20-40% range compared to the control group)

Structure (SMILES): CCN(CC)C[C@@H]1C(=O)O[C@H]2[C@H]1CC[C@@]1(C)C[C@]13CC[C@@](C)(O)[C@H]23 [compound 28]
- Release rate ([2]; 1 h): 6.8%
- Release rate ([2]; 2 h): 14.5%
- Release rate ([2]; 4 h): 24.4%
- Release rate ([2]; 8 h): 40.4%
- Release rate ([2]; 12 h): 50.0%
- Release rate ([3]; 1 h): 6.8%
- Release rate ([3]; 2 h): 14.5%
- Release rate ([3]; 4 h): 24.4%
- Release rate ([3]; 8 h): 40.4%
- Release rate ([3]; 12 h): 49.1%

Structure (SMILES): C[C@@]12CC[C@@H]3[C@H](OC(=O)[C@H]3CN3CCC(N4CCCCC4)CC3)[C@@H]3[C@]1(CC[C@@]3(C)O)C2 [compound 35]
- Release rate ([2]; 1 h): 6.8%
- Release rate ([2]; 2 h): 14.6%
- Release rate ([2]; 4 h): 26.4%
- Release rate ([2]; 8 h): 43.8%
- Release rate ([2]; 12 h): 52.5%
- Release rate ([3]; 1 h): 6.8%
- Release rate ([3]; 2 h): 13.6%
- Release rate ([3]; 4 h): 26.4%
- Release rate ([3]; 8 h): 44.8%
- Release rate ([3]; 12 h): 52.5%

Structure (SMILES): CN(C)C[C@@H]1C(=O)O[C@H]2[C@H]1CC[C@@]1(C)C[C@]13CC[C@@](C)(O)[C@H]23 [compound 41]
- Release rate ([2]; 1 h): 7.0%
- Release rate ([2]; 2 h): 16.2%
- Release rate ([2]; 4 h): 27.3%
- Release rate ([2]; 8 h): 43.4%
- Release rate ([2]; 12 h): 53.2%
- Release rate ([3]; 1 h): 7.8%
- Release rate ([3]; 2 h): 17.2%
- Release rate ([3]; 4 h): 28.0%
- Release rate ([3]; 8 h): 46.1%
- Release rate ([3]; 12 h): 54.8%

Structure (SMILES): CN(C)C[C@@H]1C(=O)O[C@H]2[C@H]1CC[C@@]1(C)C[C@]13CC[C@@](C)(O)[C@H]23 [compound 42]
- Release rate ([2]; 1 h): 7.0%
- Release rate ([2]; 2 h): 15.0%
- Release rate ([2]; 4 h): 25.2%
- Release rate ([2]; 8 h): 42.8%
- Release rate ([2]; 12 h): 52.3%
- Release rate ([3]; 1 h): 6.3%
- Release rate ([3]; 2 h): 14.2%
- Release rate ([3]; 8 h): 41.0%
- Release rate ([3]; 12 h): 47.2%

Structure (SMILES): CN(C)C[C@@H]1C(=O)O[C@H]2[C@H]1CC[C@@]1(C)C[C@]13CC[C@@](C)(O)[C@H]23 [compound 39]
- Release rate ([2]; 1 h): 6.6%
- Release rate ([2]; 2 h): 15.0%
- Release rate ([2]; 8 h): 42.7%
- Release rate ([2]; 12 h): 54.3%
- Release rate ([3]; 1 h): 6.6%
- Release rate ([3]; 2 h): 14.0%
- Release rate ([3]; 8 h): 43.6%
- Release rate ([3]; 12 h): 52.8%
